Results taken from paper PMC13013135, “[^99mTc]Tc-PSMA-HSG for PSMA-targeted Hybrid Surgical Guidance: a new addition to the PSMA-I&S/I&T family” (European Journal of Nuclear Medicine and Molecular Imaging, 2025).

Key:
[1] = tested on: PSMA expressing LNCaP cells; design: method as in PMID 27635024, PMID 30237214; conditions: 60 min, 37 °C, normalized to ([^125I]IBA)KuE; cited from earlier work
[2] = tested on: LNCaP cells; assay: Fluorescence microscopy of ligand internalization; assay type: cell-based, human; conditions: 100 nM
Method: Competitive binding experiments (IC50) were carried out in accordance with an established protocol using PSMA-expressing LNCaP cells and ([^125I]I-BA)KuE as standard radioligand. Internalization kinetics of [^99mTc]Tc-PSMA-HSG (0.5 nM) were investigated in a dual tracer internalization assay using PSMA expressing LNCaP cells and ([^125I]I-BA)KuE (0.1 nM) as an internal reference. Non-specific binding/internalization was determined in the presence of 10 µM 2-PMPA. Furthermore, PSMA-HSG internalization into LNCaP cells was investigated using fluorescence microscopy (100 nM PSMA-HSG). Please see the Supplementary Material for experimental details.
Two days prior to the experiment, LNCaP cells (approximately 100.000 cells/well) were seeded on round glass coverslips placed in the bottoms of the wells of 24-well plates. After cell adhesion and expansion, the culture medium was removed by aspiration, and the cells were washed with HBSS (1% BSA). […]
Fluorescence images were acquired on a Zeiss Axio Observer Z1 inverted microscope using a Plan Apochromat 20x, N.A. 0.8, air, DIC objective or a Plan Apochromat 63x, N.A. 1.4, oil, DIC objective. […] Fluorescence illumination was provided by an X-Cite fluorescence lamp. […]

[3] = Photophysical characterization; assay type: physicochemical; conditions: in a 5% human serum albumin solution
Method: The determination of the quantum yield and molar extinction coefficient of PSMA-HSG were performed according to previously published procedures.
Of the free dye HOOC-(SO3)Cy5(SO3)-Methyl (Sulfo-Cy5), a 100 µM stock solution in PBS was prepared. From this, a dilution series comprising the following concentrations was prepared: 7.5 µM, 5 µM, 2.5 µM, 1 µM, 0.75 µM, 0.5 µM, 0.25 µM. Of these solutions, absorption spectra (n=3 per concentration) were recorded using a Shimadzu UV-1280 spectrometer (Shimadzu, Kyoto, Japan). The concentrations were plotted against the mean of the maximum absorbance per concentration. A trendline was fitted, with the regression coefficient x 10^6 representing the molar extinction coefficient (R^2 ≥ 0.9900) in M^-1.L^-1.cm^-1.
The brightness in (M^-1.L^-1.cm^-1) was calculated using the following formula:
Brightness =Quantum yield hybrid label*Molar extinction coefficient free dye

[4] = tested on: PC3-Pip xenografts in NSG mice; assay: Fluorescence imaging in mice with clinical-grade fluorescence endoscope; assay type: in vivo, mouse
Method: Fluorescence imaging of PC3-Pip xenografts in NSG mice (2 h p.i. at a PSMA-HSG dose of 1 nmol and 6 h p.i. at a ligand dose of 0.1 nmol, respectively; n = 1 per compound and condition) was performed using a clinical-grade fluorescence laparoscopy set-up (KARL STORZ Endoskope GMBh & Co. KG). Cy5-based tumor imaging was performed using D-light P system and a prototype modified IMAGE 1 S light source with integrated Cy5 filter (both KARL STORZ Endoskope GMBh & Co. KG). Images were recorded using integrated KARL STORZ software and image processing was performed using custom MATLAB software that provided a signal intensity-based representation of the signal-to-background ratio (SBR; [45, 46]).
PC-3 PIP xenografts were established by subcutaneous injection of 5 × 10^6 PC3-PIP cells/mouse using 8–12-week-old male NSG mice (in-house breeding, Dpt. of Oncology, University of Lausanne) as previously described. Tumors reached a size of 4-8 mm in diameter after 5-6 days and were then immediately used for the fluorescence imaging studies.

[5] = tested on: PC3-Pip tumor slices; assay: Confocal fluorescence imaging of excised tumor specimens; assay type: in vivo, mouse
Method: After in vivo imaging, the tumors (n = 1 per condition) were excised and cut into 2 mm slices. Prior to imaging, slices were placed on a 35-mm culture dish containing a glass insert (MatTek Co.). Fluorescence confocal imaging was then performed using a Leica SP8 WLL microscope (Leica Microsystems). For assessment of tracer uptake Cy5 settings were used; λex = 633 nm, λem = 650–700 nm. Images were processed using accompanying LASX software (Leica Application Software Suite 4.8).

[6] = molecular target: PSMA (Homo sapiens, UniProt Q04609); design: Five patients with a diagnosis of initial (n = 4) or biochemical recurrence of (n = 1) histologically proven prostate cancer; from tissue; host or cells: prostate cancer patients: primary tumour, lymph nodes, resected tissue sections; method as in PMID 27635024, PMID 30237214; conditions: LNCaP cells, identical experimental conditions; cited from earlier work
Sequence of PSMA (Q04609 whole entry): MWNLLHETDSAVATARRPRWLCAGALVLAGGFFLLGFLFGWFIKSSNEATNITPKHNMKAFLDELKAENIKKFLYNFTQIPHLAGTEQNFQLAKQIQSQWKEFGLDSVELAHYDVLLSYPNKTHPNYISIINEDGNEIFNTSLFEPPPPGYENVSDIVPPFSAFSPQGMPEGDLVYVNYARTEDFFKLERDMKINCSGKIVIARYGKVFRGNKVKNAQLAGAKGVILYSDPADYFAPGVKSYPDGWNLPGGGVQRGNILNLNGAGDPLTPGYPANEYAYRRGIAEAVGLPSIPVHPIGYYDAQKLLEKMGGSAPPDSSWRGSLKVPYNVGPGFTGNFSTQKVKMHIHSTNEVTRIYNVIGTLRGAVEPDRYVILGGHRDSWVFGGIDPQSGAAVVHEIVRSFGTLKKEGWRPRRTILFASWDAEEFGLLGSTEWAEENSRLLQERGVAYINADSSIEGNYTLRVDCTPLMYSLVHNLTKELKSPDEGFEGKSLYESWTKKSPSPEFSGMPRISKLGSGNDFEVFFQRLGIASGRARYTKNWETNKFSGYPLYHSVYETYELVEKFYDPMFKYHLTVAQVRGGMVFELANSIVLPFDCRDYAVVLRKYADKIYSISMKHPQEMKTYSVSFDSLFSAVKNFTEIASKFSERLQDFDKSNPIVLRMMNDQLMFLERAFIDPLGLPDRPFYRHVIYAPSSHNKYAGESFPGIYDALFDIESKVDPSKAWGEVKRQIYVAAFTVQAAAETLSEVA

## O=C(O)CC[C@H](NC(=O)NC(CCCCNC(=O)c1ccc([125I])cc1)C(=O)O)C(=O)O (stereo partly drawn) [([^125I]IBA)KuE]
[1]
  internalization [% of reference]: 100 % of reference

## CC(=O)SCC(=O)N[C@H](CO)C(=O)N[C@H](CO)C(=O)N[C@H](CO)C(=O)N[C@H](CCCCNC(=O)CCCCCN1/C(=C/C=C/C=C/C2=[N+](C)c3ccc(S(=O)(=O)[O-])cc3C2(C)C)C(C)(C)c2cc(S(=O)(=O)O)ccc21)C(=O)N[C@H](Cc1ccc(O)cc1)C(=O)N[C@H](Cc1ccc2ccccc2c1)C(=O)N[C@H](CCCCNC(=O)CCCCCCC(=O)NCCCC[C@H](NC(=O)N[C@@H](CCC(=O)O)C(=O)O)C(=O)O)C(=O)O [PSMA-HSG]
[2]; 30 min, 4 °C
  membrane binding, fluorescence microscopy: intense and PSMA-specific membrane staining
[2]; 60 min, 37 °C
  internalization, fluorescence microscopy: efficient ligand translocation into the cells
[3]
  quantum yield: 26%
[4]; 0.1 nmol, 6 h p.i.
  in vivo tumor fluorescence, Cy5 fluorescence endoscope: only a weak fluorescence signal
[4]; 1 nmol, 2 h p.i.
  in vivo tumor fluorescence, Cy5 fluorescence endoscope: high relative PSMA-HSG fluorescence intensity
[5]; 2 h p.i./1 nmol
  confocal fluorescence microscopy of tumor slices: strong and homogenous PSMA-HSG fluorescence
[5]; 6 h p.i./0.1 nmol (low dose/late timepoint)
  confocal fluorescence microscopy of tumor slices: detectable, but weak fluorescence signal

## PSMA-I&S: non-fluorescent parent compound, unlabeled
[6]
  IC50: 39.7 ± 1.2 nM
